Earlier results as cited in patent publication US8506359B2, “Aqueous dispersion for chemical mechanical polishing and chemical mechanical polishing method” (JSR Corporation, priority 2008, dated 2013).

Settings: 25° C.; second carboxyl group for two carboxyl groups, third carboxyl group for three or more

Structure (SMILES)	pKa
O=C(O)C1CCCCCC1C(=O)O (stereo not drawn) [1,2-Cycloheptanedicarboxylic acid (cis), 1,2-Cycloheptanedicarboxylic acid]	7.60
O=C(O)C1CCCC1C(=O)O (stereo not drawn) [1,2-Cyclopentanedicarboxylic acid (cis), 1,2-Cyclopentanedicarboxylic acid]	6.57
O=C(O)C1CCCCCC1C(=O)O (stereo not drawn) [1,2-Cycloheptanedicarboxylic acid (trans)]	6.18
O=C(O)C1CCCCCCC1C(=O)O (stereo not drawn) [1,2-Cyclooctanedicarboxylic acid (cis), 1,2-Cyclooctanedicarboxylic acid]	7.34
O=C(O)C1CCCC1C(=O)O (stereo not drawn) [1,2-Cyclopentanedicarboxylic acid (trans)]	5.99
O=C(O)C1CCCCCCC1C(=O)O (stereo not drawn) [1,2-Cyclooctanedicarboxylic acid (trans), 1,2-Cyclooctanedicarboxylic acid]	6.24
